Activity calls are given as the source filed them. The rule behind the calls is not given here.
Columns and labels:
[1] = system: A549; assay: Cytotoxicity against human A549 cells assessed as reduction in cell viability at 10 uM incubated for 72 to 96 hrs by Celltiter-Glo assay; assay type: toxicity, cell-based; details: a549, 10 µM, time 72-96 hrs
[2] = Microsomal stability in rat liver microsomes assessed as half life at 1 uM incubated for 60 mins by HPLC-MS/MS analysis; assay type: ADME, Microsome
[3] = system: HepG2; assay: Induction of mitochondrial basal respiration in human HepG2 cells assessed as increase in oxygen consumption rate at 10 uM measured after 24 hrs by Seahorse XFe96 flux analyzer; assay type: functional, cell-based
[4] = system: HepG2; assay: Inhibition of lipid metabolism in human HepG2 cells assessed as increase in p-ACC/ACC ratio at 10 uM incubated for 24 hrs by Western blot analysis; assay type: functional, cell-based
[5] = system: Hepatocyte; assay: Inhibition of lipid metabolism in mouse primary hepatocytes assessed as reduction in intracellular tryglyceride level at 10 uM incubated for 24 hrs; assay type: functional, cell-based
[6] = molecular target: CYP2D6 (Homo sapiens, UniProt P10635); assay: Inhibition of CYP2D6 in human liver microsomes at 10 uM incubated for 45 mins by LC-MS/MS analysis relative to control; assay type: ADME, Microsome
Chain of CYP2D6 (P10635 whole entry): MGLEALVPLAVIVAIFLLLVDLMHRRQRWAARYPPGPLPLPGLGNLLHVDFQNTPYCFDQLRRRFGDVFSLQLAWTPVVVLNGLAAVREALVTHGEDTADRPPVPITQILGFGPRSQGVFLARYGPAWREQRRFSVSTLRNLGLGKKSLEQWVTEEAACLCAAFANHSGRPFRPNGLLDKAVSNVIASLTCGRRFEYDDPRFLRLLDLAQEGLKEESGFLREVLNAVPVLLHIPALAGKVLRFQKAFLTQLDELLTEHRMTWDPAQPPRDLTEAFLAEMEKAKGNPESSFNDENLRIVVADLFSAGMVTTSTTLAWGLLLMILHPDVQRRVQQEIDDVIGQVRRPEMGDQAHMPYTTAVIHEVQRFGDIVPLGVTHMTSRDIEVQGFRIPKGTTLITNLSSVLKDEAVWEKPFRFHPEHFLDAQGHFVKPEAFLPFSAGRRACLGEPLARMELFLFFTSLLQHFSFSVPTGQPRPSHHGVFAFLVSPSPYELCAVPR

[7] = system: HepG2; assay: Inhibition of lipid metabolism in human HepG2 cells assessed as increase in CPT1 levels at 10 uM incubated for 24 hrs by Western blot analysis; assay type: functional, cell-based
[8] = system: HepG2; assay: Inhibition of lipid metabolism in human HepG2 cells assessed as reduction in total lipid accumulation at 10 uM incubated for 24 hrs by oil red O staining based inverted microscopic analysis; assay type: functional, cell-based
[9] = molecular target: CYP2C19 (Homo sapiens, UniProt P33261); assay: Inhibition of CYP2C19 in human liver microsomes at 10 uM incubated for 45 mins by LC-MS/MS analysis relative to control; assay type: ADME, Microsome
Chain of CYP2C19 (P33261 whole entry): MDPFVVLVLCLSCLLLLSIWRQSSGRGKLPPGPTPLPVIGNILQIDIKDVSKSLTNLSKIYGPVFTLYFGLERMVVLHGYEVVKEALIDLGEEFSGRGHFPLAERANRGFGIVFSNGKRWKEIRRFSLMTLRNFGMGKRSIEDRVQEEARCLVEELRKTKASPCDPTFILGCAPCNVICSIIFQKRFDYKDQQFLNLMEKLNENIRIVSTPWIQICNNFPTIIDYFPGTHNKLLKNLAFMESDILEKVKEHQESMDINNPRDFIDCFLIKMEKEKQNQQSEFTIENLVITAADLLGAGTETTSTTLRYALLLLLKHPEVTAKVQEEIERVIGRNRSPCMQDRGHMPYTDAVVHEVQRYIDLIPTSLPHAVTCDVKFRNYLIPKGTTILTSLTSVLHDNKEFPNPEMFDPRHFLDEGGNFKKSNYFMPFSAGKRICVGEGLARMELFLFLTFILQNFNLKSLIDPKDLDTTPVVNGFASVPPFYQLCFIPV

[10] = molecular target: T1, hERG (Homo sapiens, UniProt Q12809); assay: Inhibition of hERG expressed in HEK293 cells at 1 uM by patch-clamp assay relative to control; assay type: toxicity, cell-based; details: HEK293 cells expressing hERG
T1 sequence (Q12809 whole entry): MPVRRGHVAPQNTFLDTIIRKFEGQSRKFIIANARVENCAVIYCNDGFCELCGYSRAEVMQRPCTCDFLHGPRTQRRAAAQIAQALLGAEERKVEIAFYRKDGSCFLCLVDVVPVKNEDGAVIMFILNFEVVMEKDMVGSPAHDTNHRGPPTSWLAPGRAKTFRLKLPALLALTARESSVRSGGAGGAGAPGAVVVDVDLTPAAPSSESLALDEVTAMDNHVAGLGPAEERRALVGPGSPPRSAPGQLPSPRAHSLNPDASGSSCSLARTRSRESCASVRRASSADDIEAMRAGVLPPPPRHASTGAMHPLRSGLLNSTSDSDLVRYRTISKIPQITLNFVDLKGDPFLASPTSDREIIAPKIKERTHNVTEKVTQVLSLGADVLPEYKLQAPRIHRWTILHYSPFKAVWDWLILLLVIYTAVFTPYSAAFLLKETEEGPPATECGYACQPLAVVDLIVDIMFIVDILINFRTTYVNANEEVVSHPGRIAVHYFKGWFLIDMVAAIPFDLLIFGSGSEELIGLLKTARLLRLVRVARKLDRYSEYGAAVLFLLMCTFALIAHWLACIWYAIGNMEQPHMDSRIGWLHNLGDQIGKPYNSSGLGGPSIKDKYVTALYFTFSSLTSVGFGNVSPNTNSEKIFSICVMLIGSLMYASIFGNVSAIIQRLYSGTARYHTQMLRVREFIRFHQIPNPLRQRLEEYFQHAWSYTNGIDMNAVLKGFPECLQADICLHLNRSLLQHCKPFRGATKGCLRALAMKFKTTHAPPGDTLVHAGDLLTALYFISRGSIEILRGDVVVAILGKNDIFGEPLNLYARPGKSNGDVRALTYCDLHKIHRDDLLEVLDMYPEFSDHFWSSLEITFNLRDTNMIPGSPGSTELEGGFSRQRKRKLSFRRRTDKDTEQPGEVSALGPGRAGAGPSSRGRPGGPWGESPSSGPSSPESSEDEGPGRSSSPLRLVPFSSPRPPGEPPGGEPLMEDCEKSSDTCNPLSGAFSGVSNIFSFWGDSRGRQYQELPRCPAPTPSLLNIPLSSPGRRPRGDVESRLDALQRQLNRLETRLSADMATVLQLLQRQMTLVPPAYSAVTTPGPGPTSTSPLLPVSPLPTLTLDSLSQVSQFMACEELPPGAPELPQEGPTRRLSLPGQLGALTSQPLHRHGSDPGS

[11] = Tmax in overnight fasted Sprague-Dawley rat at 5 mg/kg, po measured upto 24 hrs; assay type: ADME, organism-based; details: in vivo
[12] = Microsomal stability in human liver microsomes assessed as half life at 1 uM incubated for 60 mins by HPLC-MS/MS analysis; assay type: ADME, Microsome
[13] = molecular target: T1, hERG; assay: Inhibition of hERG expressed in HEK293 cells at 10 uM by patch-clamp assay relative to control; assay type: toxicity, cell-based; details: HEK293 cells expressing hERG
[14] = AUC (0 to infinity) in overnight fasted Sprague-Dawley rat at 5 mg/kg, iv measured upto 24 hrs; assay type: ADME, organism-based; design: dose 5 mg/kg, time < 24 hrs, route iv; details: in vivo
[15] = molecular target: CYP2C9 (Homo sapiens, UniProt P11712); assay: Inhibition of CYP2C9 in human liver microsomes at 10 uM incubated for 10 mins by LC-MS/MS analysis relative to control; assay type: ADME, Microsome
Chain of CYP2C9 (P11712 whole entry): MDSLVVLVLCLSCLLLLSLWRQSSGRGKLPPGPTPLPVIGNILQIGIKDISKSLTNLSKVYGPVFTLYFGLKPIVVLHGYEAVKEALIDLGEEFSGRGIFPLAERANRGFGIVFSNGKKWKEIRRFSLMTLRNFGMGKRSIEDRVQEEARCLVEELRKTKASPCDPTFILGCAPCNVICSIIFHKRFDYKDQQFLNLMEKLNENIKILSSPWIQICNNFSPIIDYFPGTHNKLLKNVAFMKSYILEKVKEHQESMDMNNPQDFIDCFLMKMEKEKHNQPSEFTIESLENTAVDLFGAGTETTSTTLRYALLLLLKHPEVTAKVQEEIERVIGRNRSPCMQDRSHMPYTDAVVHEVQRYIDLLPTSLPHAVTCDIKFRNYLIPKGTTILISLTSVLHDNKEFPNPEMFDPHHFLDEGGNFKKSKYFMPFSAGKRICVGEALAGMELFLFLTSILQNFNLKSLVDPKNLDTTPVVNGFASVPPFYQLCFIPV

[16] = Agonist activity at human TRbeta H435 mutant expressed in Escherichia coli BL21 (DE3) cells by alphascreen assay
[17] = Cmax in overnight fasted Sprague-Dawley rat at 5 mg/kg, po measured upto 24 hrs; assay type: ADME, organism-based; design: time < 24 hrs, dose 5 mg/kg, route po; details: in vivo
[18] = Half life in overnight fasted Sprague-Dawley rat at 5 mg/kg, iv measured upto 24 hrs; assay type: ADME, organism-based; details: in vivo
[19] = system: BXPC-3; assay: Cytotoxicity against human BXPC-3 cells assessed as reduction in cell viability at 10 uM incubated for 72 to 96 hrs by Celltiter-Glo assay; assay type: toxicity, cell-based; details: bxpc-3, 10 µM, time 72-96 hrs
[20] = Half life in overnight fasted Sprague-Dawley rat at 5 mg/kg, po measured upto 24 hrs; assay type: ADME, organism-based; details: in vivo
[21] = system: HFL1; assay: Cytotoxicity against human HFL1 cells assessed as reduction in cell viability at 10 uM incubated for 72 to 96 hrs by Celltiter-Glo assay; assay type: toxicity, cell-based; details: hfl1, 10 µM, time 72-96 hrs
[22] = molecular target: T2, Thyroid hormone receptor alpha (Homo sapiens) (UniProt P10827); details: filed as agonist, dose 10.0 µM
T2 sequence (whole entry): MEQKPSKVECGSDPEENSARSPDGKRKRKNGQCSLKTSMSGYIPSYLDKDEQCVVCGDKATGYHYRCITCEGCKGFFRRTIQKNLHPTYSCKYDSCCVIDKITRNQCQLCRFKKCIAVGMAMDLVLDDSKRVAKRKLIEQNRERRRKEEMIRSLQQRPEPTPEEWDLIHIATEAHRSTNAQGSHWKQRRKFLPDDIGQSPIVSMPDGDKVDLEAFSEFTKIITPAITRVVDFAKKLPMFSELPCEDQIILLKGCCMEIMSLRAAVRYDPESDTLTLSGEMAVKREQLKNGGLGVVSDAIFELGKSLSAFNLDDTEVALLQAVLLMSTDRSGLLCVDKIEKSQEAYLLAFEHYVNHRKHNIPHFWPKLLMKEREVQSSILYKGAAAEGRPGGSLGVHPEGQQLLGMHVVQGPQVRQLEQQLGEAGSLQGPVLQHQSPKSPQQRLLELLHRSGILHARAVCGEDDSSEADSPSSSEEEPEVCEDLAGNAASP

[23] = AUC (0 to infinity) in overnight fasted Sprague-Dawley rat at 5 mg/kg, po measured upto 24 hrs; assay type: ADME, organism-based; design: dose 5 mg/kg, time < 24 hrs, route po; details: in vivo
[24] = Microsomal stability in rat liver microsomes assessed as intrinsic clearance at 1 uM incubated for 60 mins by HPLC-MS/MS analysis; assay type: ADME, Microsome; details: read-out: CLH
[25] = system: HepG2; assay: Induction of mitochondrial uncoupled respiration in human HepG2 cells assessed as increase in oxygen consumption rate at 10 uM measured after 24 hrs by Seahorse XFe96 flux analyzer; assay type: functional, cell-based
[26] = Cmax in overnight fasted Sprague-Dawley rat at 5 mg/kg, iv measured upto 24 hrs; assay type: ADME, organism-based; design: time < 24 hrs, dose 5 mg/kg, route iv; details: in vivo
[27] = system: HepG2; assay: Inhibition of lipid metabolism in human HepG2 assessed as reduction in intracellular total cholesterol level at 1 to 10 uM incubated for 24 hrs; assay type: functional, cell-based; details: dose 1-10 µM
[28] = molecular target: Egl nine homolog 1 (Homo sapiens, UniProt Q9GZT9); assay: Binding affinity to PHD2 (unknown origin) assessed as change in melting temperature at 10 uM in presence of ZnSO4 by thermal shift assay
Chain of Egl nine homolog 1 (Q9GZT9 2-426 limits assumed): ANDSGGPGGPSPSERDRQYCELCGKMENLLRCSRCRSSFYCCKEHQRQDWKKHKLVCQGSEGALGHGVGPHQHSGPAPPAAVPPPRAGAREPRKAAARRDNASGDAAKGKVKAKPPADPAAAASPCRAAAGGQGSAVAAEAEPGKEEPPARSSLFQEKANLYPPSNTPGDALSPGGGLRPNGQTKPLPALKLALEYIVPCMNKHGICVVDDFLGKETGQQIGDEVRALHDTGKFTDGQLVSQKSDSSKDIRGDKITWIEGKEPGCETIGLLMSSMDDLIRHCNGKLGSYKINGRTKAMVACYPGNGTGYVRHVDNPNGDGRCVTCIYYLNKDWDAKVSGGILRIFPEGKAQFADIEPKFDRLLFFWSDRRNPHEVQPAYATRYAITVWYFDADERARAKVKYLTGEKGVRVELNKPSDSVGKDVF

[29] = Volume of distribution at steady state in overnight fasted Sprague-Dawley rat at 5 mg/kg, iv measured upto 24 hrs; assay type: ADME, organism-based; details: in vivo, read-out: Vdss
[30] = system: MCF7; assay: Cytotoxicity against human MCF7 cells assessed as reduction in cell viability at 10 uM incubated for 72 to 96 hrs by Celltiter-Glo assay; assay type: toxicity, cell-based; details: mcf7, 10 µM, time 72-96 hrs
[31] = system: CWR22R; assay: Cytotoxicity against human 22Rv1 cells assessed as reduction in cell viability at 10 uM incubated for 72 to 96 hrs by Celltiter-Glo assay; assay type: toxicity, cell-based; details: time 72-96 hrs
[32] = molecular target: CYP1A2 (Homo sapiens, UniProt P05177); assay: Inhibition of CYP1A2 in human liver microsomes at 10 uM incubated for 10 mins by LC-MS/MS analysis relative to control; assay type: ADME, Microsome
Chain of CYP1A2 (P05177 whole entry): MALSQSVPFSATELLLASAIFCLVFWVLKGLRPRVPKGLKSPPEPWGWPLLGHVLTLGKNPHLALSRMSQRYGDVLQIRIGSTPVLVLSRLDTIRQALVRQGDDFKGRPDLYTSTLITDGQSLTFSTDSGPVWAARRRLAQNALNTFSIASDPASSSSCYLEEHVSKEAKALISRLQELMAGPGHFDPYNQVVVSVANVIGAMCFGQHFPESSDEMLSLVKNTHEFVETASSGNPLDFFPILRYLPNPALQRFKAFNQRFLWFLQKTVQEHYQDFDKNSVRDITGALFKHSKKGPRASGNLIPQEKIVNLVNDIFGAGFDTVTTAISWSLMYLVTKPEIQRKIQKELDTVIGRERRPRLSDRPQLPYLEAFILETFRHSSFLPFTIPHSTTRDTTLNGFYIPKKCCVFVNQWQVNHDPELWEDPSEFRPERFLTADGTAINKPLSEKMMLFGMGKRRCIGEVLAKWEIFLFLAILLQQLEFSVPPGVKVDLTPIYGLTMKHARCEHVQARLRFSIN

[33] = molecular target: CYP2B6 (Homo sapiens, UniProt P20813); assay: Inhibition of CYP2B6 in human liver microsomes at 10 uM incubated for 10 mins by LC-MS/MS analysis relative to control; assay type: ADME, Microsome
Chain of CYP2B6 (P20813 whole entry): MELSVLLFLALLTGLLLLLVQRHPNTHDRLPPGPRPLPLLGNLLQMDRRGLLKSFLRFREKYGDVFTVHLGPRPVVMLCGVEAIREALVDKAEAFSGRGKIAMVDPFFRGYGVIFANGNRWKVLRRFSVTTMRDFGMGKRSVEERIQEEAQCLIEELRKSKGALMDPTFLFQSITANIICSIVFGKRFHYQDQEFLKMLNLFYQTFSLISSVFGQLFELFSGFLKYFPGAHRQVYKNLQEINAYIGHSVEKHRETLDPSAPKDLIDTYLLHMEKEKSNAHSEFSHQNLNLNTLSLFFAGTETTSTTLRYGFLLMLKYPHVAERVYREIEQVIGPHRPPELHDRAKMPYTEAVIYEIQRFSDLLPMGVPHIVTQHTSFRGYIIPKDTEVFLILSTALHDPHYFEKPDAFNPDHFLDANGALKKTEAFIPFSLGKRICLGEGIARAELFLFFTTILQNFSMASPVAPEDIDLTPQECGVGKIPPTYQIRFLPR

[34] = Oral bioavailability in overnight fasted Sprague-Dawley rat at 5 mg/kg measured upto 24 hrs; assay type: ADME, organism-based; details: in vivo

half-life at 1 µM [2]: > 2 h | inhibition at 0.75 h, 10 µM [6]: -11.3% | inhibition at 0.75 h, 10 µM [9]: 12% | Tmax [11]: 1.33 h | half-life at 1 µM [12]: > 2 h | AUC(0-inf) [14]: 10900 ng·h/mL | inhibition at 10 min, 10 µM [15]: 18.4% | EC50 [16]: 1340 nM | Cmax [17]: 1450 ng/mL | half-life [18]: 1.8 h | half-life [20]: 2.58 h | ΔTm [22]: 0.1 °C | AUC(0-inf) [23]: 6830 ng·h/mL | CLint scaled at 1 µM [24]: < 45.5 mL/min/kg | Cmax [26]: 8450 ng/mL | ΔTm [28]: 1.5 °C | Vd [29]: 0.72 L/kg | inhibition at 10 min, 10 µM [32]: 1.67% | inhibition at 10 min, 10 µM [33]: 15.2% | bioavailability [34]: 57.3%
SMILES: COc1cc(F)cc(C(=O)c2cc(C)c(Oc3ccc4c(O)c(C(=O)NCC(=O)O)nc(OC)c4c3)c(C)c2)c1
Activity [1]: Non-Toxic | Activity [3]: Active | inhibition [4]: Active | inhibition [5]: Active | inhibition [7]: Active | inhibition [8]: Active | inhibition at 1 µM [10]: 4.19% | inhibition at 10 µM [13]: 9.13% | Activity [19]: Non-Toxic | Activity [21]: Non-Toxic | Activity [25]: Active | inhibition [27]: Active | Activity [30]: Non-Toxic | Activity [31]: Non-Toxic

— ChEMBL document CHEMBL5154903 (J Med Chem, 2022)
